Measured values reported in patent US5646014A, “Peptide, antibacterial agent, peptide gene, recombinant DNA and method for preparing the peptide” (Agriculture, Forestry and Fisheries Technical Information …, priority 1994, dated 1997).

Legend:
Type in all cases: cell-based
[1] = system: Streptococcus pyogenes ATCC21547; assay: Growth inhibition zone on agarose plate (Test Example 2); conditions: 2 μl of 50 μM solution per well, BHI plate, no sodium chloride, 2.0 mm = no zone
Protocol: (§1) The antibacterial activity of the moricin obtained in Example 1 against various bacteria was examined based on the method described in Nature, 292:246 (1981).
When Streptococcus pyogenes was used as a test bacterium, 0.8% agarose-containing BHI plate medium was used.
(§2) 50 μM moricin solution was prepared. 2 μl of this solution was added to each well of a plate medium into which a test bacterium had been inoculated. The plate was incubated at 30° C. overnight and then diameters of the growth inhibition zones formed were measured. As a control, cecropin B1 was used. Incidentally, the diameter of the well was 2.0 mm.

[2] = system: Staphylococcus aureus subsp. aureus ATCC 6538P; assay: Minimum inhibitory concentration (M.I.C.), liquid medium; conditions: BHI medium, 30° C. for 20 hours
Protocol: (§3) In order to examine the antibacterial activity of the moricin obtained in Example 1 against various bacteria, the mimimum inhibitory concentration (M.I.C.) of moricin was measured based on the method described in Eur. J. Biochem., 187:381-386 (1990).
(§4) When E. coli and Staphylococcus aureus subsp. aureus were used as test bacteria, brain heart infusion medium (BHI medium, Difco) was used. When Bacillus cereus was used as a test bacterium, nutrient broth medium (NB medium, Difco) was used.
(§5) To a test medium suspending a test bacterium at a concentration of 4×10^4 cells/ml, an equal volume of the same medium containing moricin at varied concentrations was added and incubated at 30° C. for 20 hours. After the incubation, an equal volume of 6% formalin was added thereto to give a two-fold dilution. Then, the degree of cell proliferation was examined by measuring the absorbance at 650 nm. As a control, cecropin B1 [Comp. Biochem. Physiol. 95B:551 (1990)] was used which is a known antibacterial peptide derived from silkworm.

[3] = system: Escherichia coli JM109; assay: as above; conditions: BHI medium, 30° C. for 20 hours
Protocol: as §3, §4, §5

[4] = system: Bacillus cereus IF03457; assay: as above; conditions: NB medium, 30° C. for 20 hours
Protocol: as §3, §4, §5

[5] = system: Bacillus megaterium IAM1030; assay: Growth inhibition zone on agarose plate (Test Example 2); conditions: 2 μl of 50 μM solution per well, NB plate, no sodium chloride, 2.0 mm = no zone
Protocol: as §1
(§6) NB plate medium containing 0.8% agarose (optionally, sodium chloride was added thereto to give a concentration of 150 mM) was used.
as §2

[6] = system: Staphylococcus epidermidis IF012993; assay: as above; conditions: 2 μl of 50 μM solution per well, NB plate, no sodium chloride, 2.0 mm = no zone
Protocol: as §1, §6, §2

[7] = system: Staphylococcus xylosus IAM1312; assay: as above; conditions: 2 μl of 50 μM solution per well, NB plate, no sodium chloride, 2.0 mm = no zone
Protocol: as §1, §6, §2

[8] = system: Pseudomonas fluorescens IAM1179; assay: as above; conditions: 2 μl of 50 μM solution per well, NB plate, no sodium chloride, 2.0 mm = no zone
Protocol: as §1, §6, §2

[9] = system: Bacillus subtilis IAM1107; assay: as above; conditions: 2 μl of 50 μM solution per well, NB plate, no sodium chloride, 2.0 mm = no zone
Protocol: as §1, §6, §2

[10] = system: Escherichia coli JM109; assay: as above; conditions: 2 μl of 50 μM solution per well, NB plate, no sodium chloride, well 2.0 mm, 2.0 mm = no zone
Protocol: as §1, §6, §2

[11] = system: Staphylococcus aureus ATCC6538P; assay: as above; conditions: 2 μl of 50 μM solution per well, 2.0 mm = no zone
Protocol: as §1, §6, §2

[12] = system: Staphylococcus aureus IF03083; assay: as above; conditions: 2 μl of 50 μM solution per well, NB plate, no sodium chloride, 2.0 mm = no zone
Protocol: as §1, §6, §2

[13] = system: Bacillus cereus IF03457; assay: as above; conditions: 2 μl of 50 μM solution per well, NB plate, no sodium chloride, 2.0 mm = no zone
Protocol: as §1, §6, §2

[14] = system: Pseudomonas aeruginosa IAM1514; assay: as above; conditions: 2 μl of 50 μM solution per well, NB plate, no sodium chloride, 2.0 mm = no zone
Protocol: as §1, §6, §2

Substance: Cecropin B1: known antibacterial peptide derived from silkworm, used as a control (RWKIFKKIEKMGRNIRDGIVKAGPAIEVLGSAKAI; UniProt P04142 27-61, looked up)
- Diameter of the Inhibition Zone [1]: 2.0 mm
- M.I.C. [2]: > 16 µg/mL
- M.I.C. [3]: < 1 µg/mL
- M.I.C. [4]: > 16 µg/mL
- Diameter of the Inhibition Zone [5]: 10.9 mm
- Diameter of the Inhibition Zone [6]: 9.0 mm
- Diameter of the Inhibition Zone [7]: 2.0 mm
- Diameter of the Inhibition Zone [8]: 8.9 mm
- Diameter of the Inhibition Zone [9]: 7.8 mm
- Diameter of the Inhibition Zone [10]: 10.1 mm
- Diameter of the Inhibition Zone ([11]; NB plate with 150 mM sodium chloride): 2.3 mm
- Diameter of the Inhibition Zone ([11]; NB plate, no sodium chloride): 6.9 mm
- Diameter of the Inhibition Zone [12]: 2.0 mm
- Diameter of the Inhibition Zone [13]: 2.0 mm
- Diameter of the Inhibition Zone [14]: 7.9 mm
